# Reference: PubChem BioAssay (NCI)
#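 In this assay, cells in 96-well plates receive the compound at five concentrations for 48 hours. Endpoints are linearly interpolated between the surrounding concentrations. GI50 is the concentration that inhibits growth by half. TGI: concentration producing complete growth inhibition.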
# Experiments:
# Assay in all cases: inhibition of tumour cell growth, NCI panel, 48 h
# HOP-62 NSCLC = system: HOP-62 NSCLC
# NCI-H522 lung = system: NCI-H522 lung
# HT29 colon = system: HT29 colon
# IGROV1 ovarian = system: IGROV1 ovarian
# M14 melanoma = system: M14 melanoma
# A549 NSCLC = system: A549 NSCLC
# OVCAR-4 ovarian = system: OVCAR-4 ovarian
# MCF7 breast = system: MCF7 breast
# UACC-257 melanoma = system: UACC-257 melanoma
# K-562 leukemia = system: K-562 leukemia
# SK-OV-3 ovarian = system: SK-OV-3 ovarian
# DU-145 prostate = system: DU-145 prostate
# OVCAR-5 ovarian = system: OVCAR-5 ovarian
# COLO 205 colon = system: COLO 205 colon
# T-47D breast = system: T-47D breast
# CCRF-CEM leukemia = system: CCRF-CEM leukemia
# SF-268 CNS = system: SF-268 CNS
# PC-3 prostate = system: PC-3 prostate
# ACHN renal = system: ACHN renal
# SNB-19 CNS = system: SNB-19 CNS
# RXF 393 renal = system: RXF 393 renal
# TK-10 renal = system: TK-10 renal
# MALME-3M melanoma = system: MALME-3M melanoma
# HCT-116 colon = system: HCT-116 colon
# SW-620 colon = system: SW-620 colon
# CAKI-1 renal = system: CAKI-1 renal
# NCI/ADR-RES ovarian = system: NCI/ADR-RES ovarian
# NCI-H460 lung = system: NCI-H460 lung
# LOX IMVI melanoma = system: LOX IMVI melanoma
# MDA-MB-435 = system: MDA-MB-435
# BT-549 breast = system: BT-549 breast
# SK-MEL-5 melanoma = system: SK-MEL-5 melanoma
# SN12C renal = system: SN12C renal
# OVCAR-3 ovarian = system: OVCAR-3 ovarian
# SF-295 CNS = system: SF-295 CNS
# HS 578T breast = system: HS 578T breast
# HCC-2998 colon = system: HCC-2998 colon
# MOLT-4 leukemia = system: MOLT-4 leukemia
# SK-MEL-28 melanoma = system: SK-MEL-28 melanoma
# HCT-15 colon = system: HCT-15 colon
# UACC-62 melanoma = system: UACC-62 melanoma
# HOP-92 NSCLC = system: HOP-92 NSCLC
# U251 CNS = system: U251 CNS
# OVCAR-8 ovarian = system: OVCAR-8 ovarian
# KM12 colon = system: KM12 colon
# NCI-H226 lung = system: NCI-H226 lung
# RPMI-8226 leukemia = system: RPMI-8226 leukemia
# MDA-MB-468 breast = system: MDA-MB-468 breast
# NCI-H23 lung = system: NCI-H23 lung
# HL-60(TB) leukemia = system: HL-60(TB) leukemia
# A498 renal = system: A498 renal
# 786-0 renal = system: 786-0 renal
# SR leukemia = system: SR leukemia
# SF-539 CNS = system: SF-539 CNS
# EKVX NSCLC = system: EKVX NSCLC
structure (smiles),measurement,setting,value
CC[C@]12C=CCN3CC[C@@]4(c5ccc(OC)cc5N(C)[C@H]4[C@@](O)(C(=O)OC)[C@@H]1OC(=O)CCCC[P+](C1CCCCC1)(C1CCCCC1)C1CCCCC1)[C@@H]32,GI50,HOP-62 NSCLC,3.9 µM
same,TGI,HOP-62 NSCLC,13.8 µM
same,GI50,NCI-H522 lung,0.643 µM
same,TGI,NCI-H522 lung,6.79 µM
same,GI50,HT29 colon,1.43 µM
same,TGI,HT29 colon,3.88 µM
same,GI50,IGROV1 ovarian,1.36 µM
same,TGI,IGROV1 ovarian,4.66 µM
same,GI50,M14 melanoma,2.2 µM
same,TGI,M14 melanoma,12 µM
same,GI50,A549 NSCLC,3.13 µM
same,TGI,A549 NSCLC,13.1 µM
same,GI50,OVCAR-4 ovarian,2.73 µM
same,TGI,OVCAR-4 ovarian,13.8 µM
same,GI50,MCF7 breast,1.05 µM
same,TGI,MCF7 breast,8.18 µM
same,GI50,UACC-257 melanoma,1.57 µM
same,TGI,UACC-257 melanoma,3.9 µM
same,GI50,K-562 leukemia,0.983 µM
same,TGI,K-562 leukemia,16.2 µM
same,GI50,SK-OV-3 ovarian,2.28 µM
same,TGI,SK-OV-3 ovarian,6.94 µM
same,GI50,DU-145 prostate,3.65 µM
same,TGI,DU-145 prostate,14.8 µM
same,GI50,OVCAR-5 ovarian,3.19 µM
same,TGI,OVCAR-5 ovarian,12.1 µM
same,GI50,COLO 205 colon,0.377 µM
same,TGI,COLO 205 colon,1.23 µM
same,GI50,T-47D breast,0.92 µM
same,TGI,T-47D breast,11.2 µM
same,GI50,CCRF-CEM leukemia,2.55 µM
same,TGI,CCRF-CEM leukemia,10.5 µM
same,GI50,SF-268 CNS,3.17 µM
same,TGI,SF-268 CNS,12.9 µM
same,GI50,PC-3 prostate,1.46 µM
same,TGI,PC-3 prostate,10.4 µM
same,GI50,ACHN renal,16 µM
same,TGI,ACHN renal,29.6 µM
same,GI50,SNB-19 CNS,1.92 µM
same,TGI,SNB-19 CNS,11.3 µM
same,GI50,RXF 393 renal,1.24 µM
same,TGI,RXF 393 renal,5.4 µM
same,GI50,TK-10 renal,3.08 µM
same,TGI,TK-10 renal,14.9 µM
same,GI50,MALME-3M melanoma,1.63 µM
same,TGI,MALME-3M melanoma,3.7 µM
same,GI50,HCT-116 colon,2.94 µM
same,TGI,HCT-116 colon,12 µM
same,GI50,SW-620 colon,2.75 µM
same,TGI,SW-620 colon,15.1 µM
same,GI50,CAKI-1 renal,16.7 µM
same,TGI,CAKI-1 renal,30.6 µM
same,GI50,NCI/ADR-RES ovarian,56.5 µM
same,TGI,NCI/ADR-RES ovarian,> 100 µM
same,GI50,NCI-H460 lung,2.71 µM
same,TGI,NCI-H460 lung,12.2 µM
same,GI50,LOX IMVI melanoma,2.9 µM
same,TGI,LOX IMVI melanoma,10.9 µM
same,GI50,MDA-MB-435,2.62 µM
same,TGI,MDA-MB-435,10.7 µM
same,GI50,BT-549 breast,2.45 µM
same,TGI,BT-549 breast,6.55 µM
same,GI50,SK-MEL-5 melanoma,1.88 µM
same,TGI,SK-MEL-5 melanoma,3.74 µM
same,GI50,SN12C renal,2.77 µM
same,TGI,SN12C renal,9.91 µM
same,GI50,OVCAR-3 ovarian,1.93 µM
same,TGI,OVCAR-3 ovarian,10.9 µM
same,GI50,SF-295 CNS,4.4 µM
same,TGI,SF-295 CNS,16.1 µM
same,GI50,HS 578T breast,2.61 µM
same,TGI,HS 578T breast,8.67 µM
same,GI50,HCC-2998 colon,1.31 µM
same,TGI,HCC-2998 colon,10.3 µM
same,GI50,MOLT-4 leukemia,1.72 µM
same,TGI,MOLT-4 leukemia,7.9 µM
same,GI50,SK-MEL-28 melanoma,1.38 µM
same,TGI,SK-MEL-28 melanoma,5.25 µM
same,GI50,HCT-15 colon,16.1 µM
same,TGI,HCT-15 colon,30.5 µM
same,GI50,UACC-62 melanoma,1.53 µM
same,TGI,UACC-62 melanoma,3.64 µM
same,GI50,HOP-92 NSCLC,1.02 µM
same,TGI,HOP-92 NSCLC,3.9 µM
same,GI50,U251 CNS,0.639 µM
same,TGI,U251 CNS,12.4 µM
same,GI50,OVCAR-8 ovarian,2.93 µM
same,TGI,OVCAR-8 ovarian,11.9 µM
same,GI50,KM12 colon,1.72 µM
same,TGI,KM12 colon,6.34 µM
same,GI50,NCI-H226 lung,4.41 µM
same,TGI,NCI-H226 lung,17.9 µM
same,GI50,RPMI-8226 leukemia,0.412 µM
same,TGI,RPMI-8226 leukemia,2.01 µM
same,GI50,MDA-MB-468 breast,0.378 µM
same,TGI,MDA-MB-468 breast,1.54 µM
same,GI50,NCI-H23 lung,2.34 µM
same,TGI,NCI-H23 lung,8.99 µM
same,GI50,HL-60(TB) leukemia,0.293 µM
same,TGI,HL-60(TB) leukemia,1.41 µM
same,GI50,A498 renal,13.3 µM
same,TGI,A498 renal,27.4 µM
same,GI50,786-0 renal,5.43 µM
same,TGI,786-0 renal,18.9 µM
same,GI50,SR leukemia,1.39 µM
same,TGI,SR leukemia,5.36 µM
same,GI50,SF-539 CNS,2.85 µM
same,TGI,SF-539 CNS,11 µM
same,GI50,EKVX NSCLC,3.13 µM
same,TGI,EKVX NSCLC,16.2 µM
